Assay results: publication PMC8860381 (Molecular Cell, 2022)
One block for each molecule: values may come before it.

Legend:
hSKI-Δarch = target: T1, hSKI-Δarch (Homo sapiens, UniProt Q15477); assay: pyruvate kinase/lactate dehydrogenase-coupled ATPase assay; assay type: biochemical; conditions: 10 μg/mL poly(U) RNA, 50 nM complex, 5 mM MgAc2, 50 mM KAc, pH 7.5, 37°C
T1 construct: gene SKIC2; Sf21 insect cells; 10xHis tag on TTC37 removed; with Superkiller complex protein 3 (tetratricopeptide repeat protein 37); Superkiller complex protein 8 (WD repeat-containing protein 61)
From the text: pyruvate kinase/lactate dehydrogenase-coupled ATPase assay on hSKI-Δarch | removal of the hSKI2 arch domain led only to a minor increase in the ATPase activity

[1] = target: T2, hSKI complex (hSKI-WT; hSKI2-hSKI3-hSKI8) (Homo sapiens, UniProt Q15477, E424Q); assay: as above; assay type: biochemical; conditions: 10 μg/mL poly(U) RNA, 50 nM complex, 5 mM MgAc2, 50 mM KAc, pH 7.5, 37°C
T2 construct: gene SKIC2; full-length subunits co-expressed in Sf21 insect cells; 3C-cleavable 10xHis tag on TTC37 N-terminus, tag removed; with Superkiller complex protein 3 (tetratricopeptide repeat protein 37); Superkiller complex protein 8 (WD repeat-containing protein 61)

[2] = target: T3, hSKI complex (hSKI-WT; hSKI2-hSKI3-hSKI8) (Homo sapiens, UniProt Q15477, V341G); assay: as above; assay type: biochemical; conditions: 10 μg/mL poly(U) RNA, 50 nM complex, 5 mM MgAc2, 50 mM KAc, pH 7.5, 37°C
T3 construct: gene SKIC2; full-length subunits co-expressed in Sf21 insect cells; 3C-cleavable 10xHis tag on TTC37 N-terminus, tag removed; with Superkiller complex protein 3 (tetratricopeptide repeat protein 37); Superkiller complex protein 8 (WD repeat-containing protein 61)

[3] = system: Nc1ncnc2c1ncn2[C@@H]1O[C@H](COP(=O)(O)OP(=O)(O)OP(=O)(O)O)[C@@H](O)[C@H]1O; assay: as above; assay type: biochemical, Homo sapiens; conditions: 10 μg/mL poly(U) RNA, 50 nM complex, 5 mM MgAc2, 50 mM KAc, pH 7.5, 37°C
[4] = target: hEXO10c (hEXO9 core + hDIS3L D486N) (Homo sapiens, UniProt Q8TF46;Q9Y3B2;Q13868;Q9NQT5;Q9NPD3;Q9NQT4;Q5RKV6;Q15024;Q96B26;Q06265 …, D486N); assay: RNase protection (benzonase); hEXO10c alone, characteristic footprint, lane 1; Binding buffers not in material (Methods sections for RNase protection and cryo-EM sample preparation are empty); hSKI storage buffer 20 mM Hepes pH 7.5, 100 mM NaCl, 2 mM DTT; conditions: protein: recombinant; tags: TwinStrep-3C on DIS3L N-terminus; copies: 1;1;1;1;1;1;1;1;1;1; label: 32P body-labelled (alpha-32P UTP); single strand

Km (hSKI-Δarch): 121 µM
Molecule: Nc1ncnc2c1ncn2[C@@H]1O[C@H](COP(=O)(O)OP(=O)(O)OP(=O)(O)O)[C@@H](O)[C@H]1O [ATP]
ATPase activity abolished [1]: the ATPase activity of hSKI was abolished in the case of a mutant complex
inactive in ATPase assay [2]: V341G substitution (hSKI-THES) and indeed found that it is inactive in ATPase assays

Molecule: hSKI complex (hSKI-WT; hSKI2-hSKI3-hSKI8) (Homo sapiens)
Km [3]: 149.4 µM
kcat [3]: 0.685 s⁻¹

B1: GGGC(*UC)48 RNA (ssRNA)
RNA: GGGCUCUCUCUCUCUCUCUCUCUCUCUCUCUCUCUCUCUCUCUCUCUCUCUCUCUCUCUCUCUCUCUCUCUCUCUCUCUCUCUCUCUCUCUCUCUCUCUC
binding result [4]: binds
